Assay results from the NIST ThermoML archive (doi:10.1016/j.jct.2014.03.026).
± gives the expanded uncertainty stated by the source.

Assay: Molar enthalpy of transition or fusion
Details: Crystal; DSC

Which “Molar enthalpy of transition or fusion” value does the source give for `O=C1/C(=C/c2ccc(Cl)cc2)CCc2ccccc21` here?
Its value is 7.33 ± 0.239 kcal/mol.
